Biological target: T1, human TRPV4 (Homo sapiens, UniProt Q9HBA0)
T1 construct: host or cells: tetracycline-inducible Flp-In T-REx 293 cells
Test: Hypotonicity-induced Ca2+ influx (Fluo-4, FDSS)
Format: cell-based
Method in brief: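 Flp-In T-REx 293 cells with tetracycline-induced human TRPV4, loaded with Fluo-4 for 60 min at 25 °C. Compound added 5 min before hypotonic mannitol/CaCl2 solution. Ca2+ signal recorded for 4.5 min on FDSS.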

[1] = Flp-In T-REx 293 cells expressing human TRPV4, examples listed under heading 'Human IC50<50 nM'
[2] = Flp-In T-REx 293 cells stably expressing human TRPV4, compounds listed by potency bin (<10 nM Tables 96-1/96-2, <3 nM Table 97)

T1 sequence (Q9HBA0 whole entry): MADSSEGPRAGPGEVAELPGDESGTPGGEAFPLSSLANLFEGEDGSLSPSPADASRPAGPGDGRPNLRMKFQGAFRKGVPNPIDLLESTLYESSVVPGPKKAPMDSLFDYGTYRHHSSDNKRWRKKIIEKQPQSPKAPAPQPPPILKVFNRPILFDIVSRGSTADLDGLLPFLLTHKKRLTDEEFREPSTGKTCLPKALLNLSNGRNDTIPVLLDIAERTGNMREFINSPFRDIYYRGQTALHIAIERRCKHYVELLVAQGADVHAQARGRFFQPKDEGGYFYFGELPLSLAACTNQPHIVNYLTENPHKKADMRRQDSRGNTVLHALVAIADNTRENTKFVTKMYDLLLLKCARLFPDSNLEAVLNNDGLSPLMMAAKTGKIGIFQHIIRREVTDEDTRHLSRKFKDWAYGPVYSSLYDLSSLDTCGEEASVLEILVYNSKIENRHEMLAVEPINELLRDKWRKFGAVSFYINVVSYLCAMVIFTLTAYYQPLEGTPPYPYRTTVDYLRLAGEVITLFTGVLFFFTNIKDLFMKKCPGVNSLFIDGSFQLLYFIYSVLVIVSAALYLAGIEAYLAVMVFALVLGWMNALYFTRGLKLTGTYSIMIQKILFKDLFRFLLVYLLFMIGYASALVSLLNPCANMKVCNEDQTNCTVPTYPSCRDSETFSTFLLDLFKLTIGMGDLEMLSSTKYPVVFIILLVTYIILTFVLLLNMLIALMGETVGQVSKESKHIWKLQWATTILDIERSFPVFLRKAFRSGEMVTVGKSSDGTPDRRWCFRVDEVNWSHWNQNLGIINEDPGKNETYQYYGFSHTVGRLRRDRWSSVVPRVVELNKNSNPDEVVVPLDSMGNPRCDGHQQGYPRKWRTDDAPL

Compound	IC50 [1]	IC50 [2]
CC(C)c1cccc(C2(c3nc4c(c(=O)[nH]3)CN(C(=O)C(O)c3cccc(-c5cccc(OC(F)(F)F)c5)c3)CCC4)CC2)c1 (stereo not shown) [17-49]	< 50 nM	
O=C([C@H](O)c1cccc(-c2cccc(Cl)c2)c1)N1CCCc2nc(C3(c4cccc(-c5csc6ccccc56)c4)CC3)[nH]c(=O)c2C1 [52-11]	< 50 nM	< 10 nM
N#Cc1cc(Cl)cc(-c2cccc([C@@H](O)C(=O)N3CCCc4nc(C5(c6ccccc6)CC5)[nH]c(=O)c4C3)c2)c1 [49-44]	< 50 nM	< 3 nM
O=C(C(O)c1cccc(-c2cccc(F)c2)c1F)N1CCc2nc(C3(c4ccccc4)CC3)[nH]c(=O)c2C1 (stereo not shown) [44-33]	< 50 nM	
CC(C)(C)c1cccc(C(O)C(=O)N2CCc3nc(C4(c5cccs5)CC4)[nH]c(=O)c3C2)c1 (stereo not shown) [15-17]	< 50 nM	
O=C(Cc1cccc(OC(F)(F)F)c1)N1CCCc2nc(C3(c4cccc(Cl)c4)CC3)[nH]c(=O)c2C1 [17-112]	< 50 nM	
O=C(NC1CCCCC1)N1CC=C(c2cccc(C3(c4nc5c(c(=O)[nH]4)CN(C(=O)[C@H](O)c4cccc(C(F)(F)F)c4)CCC5)CC3)c2)CC1 [42-84]	< 50 nM	< 3 nM
O=C([C@H](O)c1cccc(C(F)(F)F)c1)N1CCCc2nc(C3(c4cc(Br)cs4)CC3)[nH]c(=O)c2C1 [18-2]	< 50 nM	< 3 nM
O=C([C@H](O)c1cccc(C(F)(F)F)c1)N1CCCc2nc(C3(c4cccc(C5=CCN(S(=O)(=O)Cc6ccccc6)CC5)c4)CC3)[nH]c(=O)c2C1 [42-78]	< 50 nM	< 10 nM
Cc1ccc(-c2cccc(C(O)C(=O)N3CCc4nc(C5(c6ccccc6)CC5)[nH]c(=O)c4C3)c2)cc1 (stereo not shown) [44-56]	< 50 nM	
COCCOc1cccc(-c2cccc(C3(c4nc5c(c(=O)[nH]4)CN(C(=O)[C@H](O)c4cccc(C(F)(F)F)c4)CCC5)CC3)c2)c1 [42-4]	< 50 nM	< 3 nM
CC(C)(C)c1cccc(-c2cccc([C@@H](O)C(=O)N3CCc4nc(C5(c6cccc(Cl)c6)CC5)[nH]c(=O)c4C3)c2)c1 [45-2]	< 50 nM	< 10 nM
O=C([C@H](O)c1cccc(-c2cccc(C(F)(F)F)c2)c1)N1CCCc2nc(C3(c4ccccc4)CC3)[nH]c(=O)c2C1 [49-13]	< 50 nM	< 3 nM
O=C(Cc1cccc(-c2cccc(C(F)(F)F)c2)c1)N1CCCc2c(nc(C3(c4ccccc4)CC3)[nH]c2=O)C1 [17-109]	< 50 nM	
CC(C)(C)c1cccc(-c2cccc([C@@H](O)C(=O)N3CCCc4nc(C5(c6cccc(Cl)c6)CC5)[nH]c(=O)c4C3)c2)c1 [50-7]	< 50 nM	< 10 nM
O=C(Cc1ccccc1)N1CCN(c2ccc(-c3cccc(C4(c5nc6c(c(=O)[nH]5)CN(C(=O)[C@H](O)c5cccc(C(F)(F)F)c5)CCC6)CC4)c3)cn2)CC1 [42-86]	< 50 nM	< 10 nM
O=C(C(O)c1cccc(-c2cccc(Cl)c2)c1)N1CCCc2nc(C3(c4ccccc4)CC3)[nH]c(=O)c2C1 (stereo not shown) [49-6]	< 50 nM	< 10 nM
O=C([C@H](O)c1cccc(C(F)(F)F)c1)N1CCCc2nc(C3(c4cc(C5CCOCC5)cs4)CC3)[nH]c(=O)c2C1 [30-7]	< 50 nM	< 10 nM
O=C([C@H](O)c1cccc(Cl)c1)N1CCc2nc(C3(c4cccc(F)c4)CC3)[nH]c(=O)c2C1 [3-31]	< 50 nM	

Compound	IC50 [1]	IC50 [2]
O=C(C(O)c1cccc(-c2ccc(C(F)(F)F)nc2)c1)N1CCc2nc(C3(c4ccccc4)CC3)[nH]c(=O)c2C1 (stereo not shown) [44-41]	< 50 nM	
O=C(Cc1cccc(C(F)(F)F)c1F)N1CCCc2nc(C3(c4cccc(Cl)c4)CC3)[nH]c(=O)c2C1 [17-111]	< 50 nM	< 10 nM
CC(C)c1cncc(C2(c3nc4c(c(=O)[nH]3)CN(C(=O)[C@H](O)c3cccc(C(F)(F)F)c3)CCC4)CC2)c1 [19-2]	< 50 nM	< 10 nM
CC(C)c1cncc(C2(c3nc4c(c(=O)[nH]3)CN(C(=O)[C@H](O)c3cccc(-c5ccc(C(F)(F)F)cc5)c3)CC4)CC2)c1 [47-2]	< 50 nM	< 10 nM
O=C([C@H](O)c1cccc(-c2cccc(Cl)c2Cl)c1)N1CCc2nc(C3(c4ccccc4)CC3)[nH]c(=O)c2C1 [44-109]	< 50 nM	
O=C([C@H](O)c1cccc(-c2ccc(F)c(Cl)c2)c1)N1CCc2nc(C3(c4ccccc4)CC3)[nH]c(=O)c2C1 [44-82]	< 50 nM	< 3 nM
O=C([C@H](O)c1cccc(-c2cccc(OC(F)(F)F)c2)c1)N1CCCc2nc(C3(c4cccc(-c5csc6ccccc56)c4)CC3)[nH]c(=O)c2C1 [52-10]	< 50 nM	< 10 nM
O=C([C@H](O)c1cccc(Cl)c1)N1CCCc2nc(C3(c4cccc(-c5cnsc5)c4)CC3)[nH]c(=O)c2C1 [40-2]	< 50 nM	< 3 nM
O=C(C(O)c1cccc(-c2cccc(OC(F)(F)F)c2)c1)N1CCCc2nc(C3(c4cncc(-c5ccccc5)c4)CC3)[nH]c(=O)c2C1 (stereo not shown) [56-1]	< 50 nM	< 3 nM
CC(C)c1cccc(C(O)C(=O)N2CCc3nc(C4(c5cccc(F)c5)CC4)[nH]c(=O)c3C2)c1 (stereo not shown) [14-32]	< 50 nM	
O=C([C@H](O)c1cccc(C(F)(F)F)c1)N1CCCc2nc(C3(c4cc(C5CCCCC5)cs4)CC3)[nH]c(=O)c2C1 [18-4]	< 50 nM	< 10 nM
N#Cc1cc(Cl)cc(-c2cccc([C@@H](O)C(=O)N3CCc4nc(C5(c6cccc(Cl)c6)CC5)[nH]c(=O)c4C3)c2)c1 [45-5]	< 50 nM	< 3 nM
CC(C)c1cncc(C2(c3nc4c(c(=O)[nH]3)CN(C(=O)[C@H](O)c3cccc(-c5cccc(C(F)(F)F)c5)c3)CCC4)CC2)c1 [55-5]	< 50 nM	< 10 nM
O=C(C(O)c1cccc(Cl)c1F)N1CCCc2nc(C3(c4ccccc4)CC3)[nH]c(=O)c2C1 (stereo not shown) [17-42]	< 50 nM	
O=C([C@H](O)c1cccc(C(F)(F)F)c1)N1CCc2nc(C3(c4cccc(C5CCOCC5)c4)CC3)[nH]c(=O)c2C1 [27-3]	< 50 nM	< 10 nM
CC(C)N(C(=O)c1csc(C2(c3nc4c(c(=O)[nH]3)CN(C(=O)[C@H](O)c3cccc(C(F)(F)F)c3)CCC4)CC2)c1)C1CCCCC1 [59-15]	< 50 nM	< 10 nM
O=C([C@H](O)c1cccc(C(F)(F)F)c1)N1CCCc2nc(C3(c4cccc(-c5ccccc5)c4)CC3)[nH]c(=O)c2C1 [42-16]	< 50 nM	< 10 nM
O=C(Cc1cccc(-c2cccc(C(F)(F)F)c2)c1)N1CCc2nc(C3(c4cccc(C5CCCCC5)c4)CC3)[nH]c(=O)c2C1 [27-4]	< 50 nM	< 10 nM
O=C(C(O)c1cccc(C2CC2)c1)N1CCCc2nc(C3(c4ccccc4)CC3)[nH]c(=O)c2C1 (stereo not shown) [17-58]	< 50 nM	

Compound	IC50 [1]	IC50 [2]
O=C(C(O)c1cccc(-c2cnc3ccccc3c2)c1)N1CCCc2nc(C3(c4ccccc4)CC3)[nH]c(=O)c2C1 (stereo not shown) [49-1]	< 50 nM	< 10 nM
CC(C)Oc1cccc(-c2cccc([C@@H](O)C(=O)N3CCc4nc(C5(c6ccccc6)CC5)[nH]c(=O)c4C3)c2)c1 [44-104]	< 50 nM	< 3 nM
N#Cc1cc(C#N)cc(-c2cccc(C3(c4nc5c(c(=O)[nH]4)CN(C(=O)[C@H](O)c4cccc(C(F)(F)F)c4)CCC5)CC3)c2)c1 [42-71]	< 50 nM	< 10 nM
N#Cc1cc(Cl)cc(-c2cccc(CC(=O)N3CCc4nc(C5(c6cccc(Cl)c6)CC5)[nH]c(=O)c4C3)c2)c1 [14-121]	< 50 nM	
O=C([C@H](O)c1cccc(C(F)(F)F)c1)N1CCCc2nc(C3(c4cccc(-c5cncs5)c4)CC3)[nH]c(=O)c2C1 [42-25]	< 50 nM	< 10 nM
O=C(C(O)c1cccc(Oc2ccccc2)c1)N1CCCc2nc(C3(c4ccccc4)CC3)[nH]c(=O)c2C1 (stereo not shown) [17-85]	< 50 nM	
CC(C)c1cccc(C2(c3nc4c(c(=O)[nH]3)CN(C(=O)[C@H](O)c3cccc(-c5cccc(C(F)(F)F)c5)c3)CCC4)CC2)c1 [51-2]	< 50 nM	< 10 nM
O=C([C@H](O)c1cccc(-c2ccc(OC(F)(F)F)cc2)c1)N1CCCc2nc(C3(c4ccccc4)CC3)[nH]c(=O)c2C1 [49-33]	< 50 nM	< 3 nM
O=C([C@H](O)c1cccc(-c2ccccc2OCc2ccccc2)c1)N1CCc2nc(C3(c4ccccc4)CC3)[nH]c(=O)c2C1 [44-111]	< 50 nM	
O=C([C@H](O)c1cccc(C(F)(F)F)c1)N1CCc2nc(C3(c4cncc(-c5ccccc5)c4)CC3)[nH]c(=O)c2C1 [38-1]	< 50 nM	< 3 nM
CC(C)(C)c1ccc(-c2cccc([C@@H](O)C(=O)N3CCCc4nc(C5(c6cccc(Cl)c6)CC5)[nH]c(=O)c4C3)c2)cc1 [50-22]	< 50 nM	< 10 nM
O=C(Cc1cccc(-c2cccc(C(F)(F)F)c2)c1)N1CCCc2nc(C3(c4cc(-c5ccccc5)cs4)CC3)[nH]c(=O)c2C1 [18-28]	< 50 nM	< 10 nM
O=C([C@H](O)c1cccc(-c2ccnc(C(F)(F)F)c2)c1)N1CCCc2nc(C3(c4ccccc4)CC3)[nH]c(=O)c2C1 [49-17]	< 50 nM	< 3 nM
CC(C)c1cccc(C2(c3nc4c(c(=O)[nH]3)CN(C(=O)[C@H](O)c3cccc(Cl)c3)CC4)CC2)c1 [14-13]	< 50 nM	< 10 nM
CN(C(=O)c1csc(C2(c3nc4c(c(=O)[nH]3)CN(C(=O)[C@H](O)c3cccc(C(F)(F)F)c3)CCC4)CC2)c1)C1CCCCC1 [59-2]	< 50 nM	< 10 nM
O=C(C(O)c1cccc(SC(F)(F)F)c1)N1CCc2nc(C3(c4ccccc4)CC3)[nH]c(=O)c2C1 (stereo not shown) [14-25]	< 50 nM	
O=C(C(O)c1cc(Cl)cc(Cl)c1)N1CCc2nc(C3(c4ccccc4)CC3)[nH]c(=O)c2C1 (stereo not shown) [3-62]	< 50 nM	
O=C(C(O)c1cccc(C(F)(F)F)c1F)N1CCCc2nc(C3(c4cccc(Cl)c4)CC3)[nH]c(=O)c2C1 (stereo not shown) [17-4]	< 50 nM	< 3 nM
O=C(C(O)c1cccc(Oc2cccc(C(F)(F)F)c2)c1)N1CCCc2nc(C3(c4cccc(Cl)c4)CC3)[nH]c(=O)c2C1 (stereo not shown) [17-40]	< 50 nM	< 10 nM
